Test results: article PMC6792352, “Limited Chemical Structural Diversity Found to Modulate Thyroid Hormone Receptor in the Tox21 Chemical Library” (Environmental Health Perspectives, 2019)
Structures can show the parent of a compound that is named as a salt.

Assay: in vitro
Conditions: rat, gh3-tre-luc cells

Row | Structure (SMILES) | CC50 at 24 h (AC50 (uM) modified / 1000) | other results
1 | Cc1cccc(N=Nc2ccc(N(C)C)cc2)c1 [3'-Methyl-4-dimethylaminoazobenzene] |  | CC50 at 24 h (AC50 (uM) modified / 1000, Tox21_110001=Tox21_201755, viability, 1 nM T3 present, 24 h): 72.8 µM; CC50 at 24 h (AC50 (uM) modified / 1000, Tox21_110001=Tox21_303022, viability, 1 nM T3 present, 24 h): > 90 µM
2 | O=C1CCCCCCCCCCC1 [Cyclododecanone] | > 90 µM | 
3 | COP(=O)(OC)C(O)C(Cl)(Cl)Cl (stereo not drawn) [Trichlorfon] |  | CC50 at 24 h (AC50 (uM) modified / 1000, Tox21_110001=Tox21_110843, viability, 1 nM T3 present, 24 h): > 50 µM; CC50 at 24 h (AC50 (uM) modified / 1000, Tox21_110001=Tox21_201607, viability, 1 nM T3 present, 24 h): > 90 µM
4 | CCCCCO [1-Pentanol] | > 90 µM | 
5 | N[C@@H](Cc1cc(I)c(Oc2cc(I)c(O)c(I)c2)c(I)c1)C(=O)O [Levothyroxine] | > 60 µM | 
6 | CCCCC(O)c1ccccc1 (stereo not drawn) [Fenipentol] | > 50 µM | 
7 | CCCCCCCCCCCCN1CCOCC1 [4-Dodecylmorpholine] | > 90 µM | 
8 | Nc1ccc(N=Nc2ccc(-c3ccc(N=Nc4c(S(=O)(=O)O)cc5cc(S(=O)(=O)O)c(N=Nc6ccccc6)c(O)c5c4N)cc3)cc2)c(N)c1 [C.I. Direct Black 38] |  | CC50 at 24 h (AC50 (uM) modified / 1000, Tox21_110001=Tox21_302342, viability, 1 nM T3 present, 24 h): > 60 µM
9 | O=S1(=O)CC(Cl)(Cl)C(Cl)(Cl)C1 [3,3,4,4-Tetrachlorotetrahydrothiophene 1,1-dioxide] | 1.02 µM | 
10 | COc1cc(C[C@H](C)N)c(OC)cc1Br [S-(+)-2,5-Dimethoxy-4-bromoamphetamine hydrochloride] | 61.8 µM | 
11 | CC(=O)OCC1=C(C(=O)O)N2C(=O)[C@@H](NC(=O)Cc3ccccc3)[C@H]2SC1 [Cefaloram] | > 50 µM | 
12 | CC(C)c1cccc(C(C)C)c1N1C(=O)c2ccc(O)cc2C1=O [5HPP-33] | > 90 µM | 
13 | COC(=O)[C@H]1[C@H]2C[C@@H]3c4[nH]c5cc(OC)ccc5c4CCN3C[C@H]2C[C@@H](OC(=O)/C=C/c2cc(OC)c(OC)c(OC)c2)[C@@H]1OC [Rescinnamine] | > 20 µM | 
14 | On1ccccc1=S [Sodium (2-pyridylthio)-N-oxide] | 1.83 µM | 
15 | CCN1/C(=C/C=C/C=C/c2sc3ccccc3[n+]2CC)Sc2ccccc21 [Dithiazanine iodide] | 4.14 µM | 
16 | CS(=O)(=O)OCCCNCCCOS(C)(=O)=O [Improsulfan tosylate] | > 50 µM | 
17 | CCCc1nc(C)c2c(=O)[nH]c(-c3cc(S(=O)(=O)N4CCN(CC)CC4)ccc3OCC)nn12 [Vardenafil citrate] | > 50 µM | 
18 | CCCCCCCCCOC(=O)c1ccc(O)cc1 [Nonylparaben] | 21.8 µM | 
19 | CC(C)(C)OC=O [tert-Butyl formate] | > 100 µM | 
20 | CC(C)Cc1ccc([C@H](C)C(=O)O)cc1 [Dexibuprofen] | > 50 µM | 
21 | CC(CN)CCCN (stereo not drawn) | > 90 µM | 
22 | COP(=O)(OC)OC(=CCl)c1cc(Cl)c(Cl)cc1Cl [Tetrachlorovinphos] |  | CC50 at 24 h (AC50 (uM) modified / 1000, Tox21_110001=Tox21_200092, viability, 1 nM T3 present, 24 h): > 100 µM
23 | Cc1c(C2(c3cc(Br)c(O)c(Br)c3C)OS(=O)(=O)c3ccccc32)cc(Br)c(O)c1Br [Bromcresol green] | 45.4 µM | 
24 | COc1cc2c(cc1OC)CC(=O)N(CCCN(C)C[C@H]1Cc3cc(OC)c(OC)cc31)CC2 [Ivabradine hydrochloride] | > 50 µM | 

Row | Structure (SMILES) | CC50 at 24 h (AC50 (uM) modified / 1000) | other results
25 | CC(C)c1cccc(C(C)C)c1NC(=O)NS(=O)(=O)c1cc(C(C)(C)O)co1 [CP-465394] | > 90 µM | 
26 | CN1CC[C@]23c4c5ccc(O)c4O[C@H]2[C@@H](O)CC[C@H]3[C@H]1C5 [Dihydromorphine] |  | CC50 at 24 h (AC50 (uM) modified / 1000, Tox21_110001=Tox21_112886, viability, 1 nM T3 present, 24 h): > 90 µM
27 | CNCCc1ccccn1 [Betahistine mesylate] | > 20 µM | 
28 | CC1(C)Cc2cccc(O)c2O1 [2,3-Dihydro-2,2-dimethyl-7-benzofuranol] | > 100 µM | 
29 | CNC(=N)NCCC[C@H](N)C(=O)O [Tilarginine acetate] | > 50 µM | 
30 | O=C(O)COc1ccc2ccccc2c1 [2-Naphthoxyacetic acid] | > 90 µM | 
31 | CC(COCCO)OCCO (stereo not drawn) [Pluronic F-127] | > 80 µM | 
32 | CC(CCc1ccc(O)cc1)NCCc1ccc(O)c(O)c1 (stereo not drawn) [Dobutamine] | > 50 µM | 
33 | CCOC(=O)CCC(C)=O [Ethyl levulinate] | > 90 µM | 
34 | COC(=O)CCc1ccc(OCC(O)CNC(C)C)cc1 (stereo not drawn) [Esmolol hydrochloride] | > 50 µM | 
35 | CC(C)(CO)COC(=O)C(C)(C)CO [3-Hydroxy-2,2-dimethylpropyl 3-hydroxy-2,2-dimethylpropanoate] | > 90 µM | 
36 | Cc1ccc2c(c1)c1c3n2CCNC3CCC1 (stereo not drawn) [Pirlindole mesylate] | 9.12 µM | 
37 | C/C=C/c1ccc(OCC)c(O)c1 [trans-2-Ethoxy-5-(1-propenyl)phenol] | > 90 µM | 
38 | CCCCC(CC)COC(=O)CCCCCCCC(=O)OCC(CC)CCCC (stereo not drawn) [Bis(2-ethylhexyl) nonanedioate] | > 90 µM | 
39 | CCCC(C)C(O)CC (stereo not drawn) [4-Methyl-3-heptanol] | > 90 µM | 
40 | O=C1[C@H]2CCCC[C@H]2C(=O)N1CCCCN1CCN(c2nsc3ccccc23)CC1 [Perospirone hydrochloride] | 21 µM | 
41 | Nc1ccccc1Nc1ccccc1 [2-Aminodiphenylamine] | 14.7 µM | 
42 | O=c1[nH]cnc2[nH]cc(CN3CCCCC3)c12 [5-(Piperidin-1-ylmethyl)-3,7-dihydro-4H-pyrrolo[2,3-d]pyrimidin-4-one] | > 50 µM | 
43 | Cc1cccc(C)c1NC(=O)CN1CCN(CCCC(c2ccc(F)cc2)c2ccc(F)cc2)CC1 [Lidoflazine] | 11.6 µM | 
44 | Nc1cc(Cl)c(-c2cc(Cl)c(N)cc2Cl)cc1Cl [2,2',5,5'-Tetrachlorobenzidine] | 13.7 µM | 
45 | O=S(=O)(O)CCN1CCN(CCO)CC1 [Sodium 2-[4-(2-hydroxyethyl)piperazin-1-yl]ethanesulfonate] | > 90 µM | 
46 | COc1cccc(CCc2ccccc2OCC(CN(C)C)OC(=O)CCC(=O)O)c1 (stereo not drawn) [Sarpogrelate hydrochloride] | 17.2 µM | 
47 | C=C1CC[C@H](O)C/C1=C/C=C1\CCC[C@]2(C)[C@@H]([C@H](C)CC[C@@H](O)C(C)(C)O)CC[C@@H]12 [24R,25-Dihydroxyvitamin D3] | 23.4 µM | 
48 | O=P(c1ccccc1)(c1ccccc1)c1ccccc1 [Triphenylphosphine oxide] | > 90 µM | 

Row | Structure (SMILES) | CC50 at 24 h (AC50 (uM) modified / 1000) | other results
49 | N#Cc1ccc(Cl)cc1 [4-Chlorobenzonitrile] |  | CC50 at 24 h (AC50 (uM) modified / 1000, Tox21_110001=Tox21_301477, viability, 1 nM T3 present, 24 h): > 90 µM
50 | CCOC(=O)C1=C[C@@H](OC(CC)CC)[C@H](NC(C)=O)[C@@H](N)C1 [Oseltamivir tartrate] | > 50 µM | 
51 | C=Cc1ccc(C)cc1 [4-Methylstyrene] | > 90 µM | 
52 | O=C(C(=O)c1ccccc1)c1ccccc1 [1,2-Diphenylethanedione] | > 90 µM | 
53 | O=C(O)CCCCCCCCCCC(=O)O [Dodecanedioic acid] | > 90 µM | 
54 | C#CC(O)CCCCC (stereo not drawn) [1-Octyn-3-ol] | > 90 µM | 
55 | NC(N)=S [Thiourea] | > 90 µM | 
56 | CCOc1ccc(C(=O)OCCN(CC)CC)cc1 [Parethoxycaine] | > 50 µM | 
57 | CC(NN)c1ccccc1 (stereo not drawn) [Mebanazine] | > 50 µM | 
58 | CC[C@@H](C(=O)[C@@H](C)[C@@H](O)[C@H](C)[C@@H]1O[C@@H]([C@@H](CC)C(=O)O)CC[C@@H]1C)[C@H]1O[C@]2(C=C[C@@H](O)[C@]3(CC[C@@](C)([C@H]4CC[C@](O)(CC)[C@H](C)O4)O3)O2)[C@H](C)C[C@@H]1C [Salinomycin sodium] | 0.823 µM | 
59 | OCc1c[nH]c2ccccc12 [Indole-3-carbinol] | > 90 µM | 
60 | CN(C)CC/C=C1/c2ccccc2Sc2ccc(Cl)cc21 [Chlorprothixene] | 11 µM | 
61 | Cc1cccc(C)c1OCC(=O)N[C@@H](Cc1ccccc1)[C@@H](O)C[C@H](Cc1ccccc1)NC(=O)[C@H](C(C)C)N1CCCNC1=O [Lopinavir] | 24.6 µM | 
62 | CC1(S(=O)(=O)O)CC(=O)c2ccccc2C1=O (stereo not drawn) [Menadione sodium bisulfite] | 12.2 µM | 
63 | CC(O)c1ccccc1 (stereo not drawn) [alpha-Methylbenzyl alcohol] | > 90 µM | 
64 | CC(=O)/C=C/[C@H]1C(C)=CC[C@@H](C)C1(C)C [alpha-Irone] | > 90 µM | 
65 | CC1(C)S[C@@H]2[C@H](NC(=O)[C@H](NC(=O)N3CCNC3=O)c3ccccc3)C(=O)N2[C@H]1C(=O)O [Azlocillin sodium] | > 20 µM | 
66 | Cc1[nH]cnc1CN1CCc2c(c3ccccc3n2C)C1=O [Alosetron hydrochloride] | > 50 µM | 
67 | Cc1cccc(C)c1NC(=O)c1cc(S(N)(=O)=O)c(Cl)cc1O [Xipamide] | > 50 µM | 
68 | Cn1cc([S+](C)[O-])c(=O)c2ccc(F)cc21 (stereo not drawn) [Flosequinan] | > 50 µM | 
69 | COc1ccccc1OCCNCC(O)COc1cccc2[nH]c3ccccc3c12 (stereo not drawn) [Carvedilol tartrate] | 24 µM | 
70 | OCC(O)CN1CCN(c2ccccc2)CC1 (stereo not drawn) [Dropropizine] | > 50 µM | 
